Each block holds one compound with its values, some of them ahead of it. Residues, ends and D or L forms follow the SMILES beside them. No end group written: not given here.
How the values were obtained:
Assay type in all cases: cell-based
[1] = target: Cdyn (Homo sapiens, UniProt P61073, L41A/H113N/S178A); test: Gαi BRET of peptides on Cdyn; set-up: Gi BRET (dEC50): unit not given here; conditions: Cdyn receptor; for Gi BRET (dEC50): vs WT:WT
Method: (§1) Lyophilized peptides were stored at −80 °C and resuspended in assay buffer on the day of the experiment.
(§2) 40,000 HEK 293T cells were transiently transfected with WT or variant HA3-CXCR4, Gαi1−91-Rluc8, Gβ3-WT, and Gγ9-GFP2 in pcDNA3.1(+) at a ratio of 10:1:10:5 respectively. Cells were first seeded in 100 µL DMEM 10% FBS in a poly-lysine coated, white-walled, white-bottom 96-well plate. Directly after cell loading, 50 µL of the mixture containing Lipofectamine 2000 and the DNA was added on top of the cells. The cells were then left to incubate at 37 °C, 5% CO2, and 95% relative humidity for 20 h, after which, 150 µL media was refreshed. Cells were assayed 48 h post-transfection. Cells were washed with 150 µL PBS, then 40 µL BRET buffer (HBSS, 0.2% Glucose) was added to each well. Coelenterazine 400a was first added at a final concentration of 2.5 µM and BRET ratios were measured once using Mithras[2] LB 943 plate reader. After the first measurement, 40 µL of a 3x concentrated agonist solution was added to each well, and BRET ratios were measured for another 30 min using a Mithras[2] LB 943 plate reader. Mock-transfected controls were subtracted from the data. Maximum values averaged from 3 replicates were then plotted against selected concentrations and fitted to a sigmoidal curve using GraphPad Prism v9.

[2] = test system: Csedy transduced primary human T cells; test: Boyden chamber migration of T cells transduced with Csedy; set-up: key: migrated cells toward chemokine / migrated cells without chemoattractant; conditions: 100 nM full-length chemokine vs no chemoattractant, peak over 8 h
Method: (§3) Full-length chemokine purification
(§4) CXCL12 and variants expressed in pMS211 (pET21a-based) construct and purified as previously described. N-terminal His-tag and leader sequence cleaved with enterokinase to produce a final product with the correct N-terminal sequence. The final lyophilized protein was resuspended at 1 mg/ml in 0.1% BSA. Aliquots were snap frozen and stored at −80 °C.
(§5) Generation of human T cells expressing CXCR4 WT or variants
(§6) Peripheral blood mononuclear cells (PBMCs) were isolated from buffy coats by density gradient centrifugation (Lymphoprep, StemCell ref: 07851) and activated on plates coated with anti-CD3 ([…], Biolegend, ref: 317347, clone: OKT3) and anti-CD28 ([…], Biolegend, ref: 302934, clone: CD28.2) antibodies in T cell media (RPMI 10% FBS, 2 mM L-Glutamine, 1% Penicillin-Streptomycin) with IL-15 and IL-7 (Miltenyi Biotec, 10 ng/ml each, ref: 130-095-362 and ref: 130-095-765 respectively). The day before transduction, non-cell tissue culture treated 24-well plate (Greiner Bio-One, ref: 662102) was coated with retronectin (Takara Bio, ref: T100B) in PBS (7 μg/ml, 1 ml per well), and incubated overnight at 4 °C. Three days after activation, retronectin was removed and the plate was blocked with RPMI 10% FBS for 15 min at 37 °C. Then, media was removed and retroviral supernatant was centrifuged at 2000 × g, 1 h, 32 °C on retronectin-coated plates. Retroviral supernatant was gently removed and activated T cell suspension at 0.15 E^6 cells/ml was added, and centrifuged at 1000 × g, 10 min, 21 °C. Cells were incubated at 37 °C, 5% CO2, and 95% relative humidity for 3 days. After 48–72 h of transduction, T cells were harvested and further expanded in T cell media containing IL-7 and IL-15. Transduced T cells were positively selected with a PE selection kit (EasySep, ref: 17684) and an anti-HA PE-conjugated antibody (Biolegend, ref: 901518, clone: 16B12) at a 1:50 dilution to enrich transduced T cells. Enrichment of surface expression in PE-selected cells was confirmed by flow cytometry using a BD FACS LSR II cytometer (BD Biosciences) and analyzed with FlowJo software (BD Biosciences).
(§7) T cells transduced and selected for expression of CXCR4 variants from 3 to 6 donors were stained with 1 µM Vybrant DiO cell-labeling solution (Thermo, ref: V22886) in serum-free RPMI 1640 + GlutaMax. 40,000 cells in 75 µL were seeded in each well of 96-well Boyden chambers with 5.0 µm pores (Corning, ref: 3388)[44]. Reservoirs were filled with 200 µL serum-free RPMI 1640 + GlutaMax without chemoattractant or supplemented with 100 nM chemokine. The bottom of the attractant reservoir was imaged for migrated cells for 8 h with a Cytation 5 BioSpa (Biotek) at 37 °C with 5% CO2. Fluorescent spots were counted over time and compared to the no-chemoattractant control to calculate the migration index (# migrated cells towards chemoattractant / # migrated cells in absence of chemoattractant). The peak migration indices averaged between 3 technical replicates for each transduced donor per chemoattractant concentration were plotted.

[3] = test system: WT CXCR4 transduced primary human T cells; test: Boyden chamber migration of T cells transduced with WT CXCR4; set-up: key to Migration Index: migrated cells toward chemokine / migrated cells without chemoattractant; conditions: for Migration Index: 100 nM full-length chemokine vs no chemoattractant, peak over 8 h, WT receptor
Method: as §3, §4, §5, §6, §7

[4] = test system: Cdyn transduced primary human T cells; test: Boyden chamber migration of T cells transduced with Cdyn; conditions: 100 nM full-length chemokine vs no chemoattractant, peak over 8 h
Method: as §3, §4, §5, §6, §7

[5] = test system: Csel2 transduced primary human T cells; test: Boyden chamber migration of T cells transduced with Csel2; set-up: key: migrated cells toward chemokine / migrated cells without chemoattractant; conditions: 100 nM full-length chemokine vs no chemoattractant, peak over 8 h
Method: as §3, §4, §5, §6, §7

[6] = target: WT CXCR4 (Homo sapiens, UniProt P61073); test: Gαi BRET of peptides on WT CXCR4; conditions: for Gi BRET (dEC50): vs WT:WT, WT receptor
Method: as §1, §2

[7] = test system: Csel2; test: Gαi BRET of peptides on Csel2; conditions: for Gi BRET (dEC50): vs WT:WT, Csel2 receptor
Method: as §1, §2

[8] = target: Csedy (Homo sapiens, UniProt P61073); test: Gαi BRET of peptides on Csedy; conditions: Csedy receptor; for Gi BRET (dEC50): vs WT:WT
Method: as §1, §2

[9] = test system: Gαi activation; test: Gαi dissociation BRET of designed receptors with WT CXCL12(1-17) peptide; set-up: Gαi BRET response: scale not given here; conditions: HEK 293T
Method: as §1, §2

Cdyn, sequence (P61073 whole entry L41A/H113N/S178A): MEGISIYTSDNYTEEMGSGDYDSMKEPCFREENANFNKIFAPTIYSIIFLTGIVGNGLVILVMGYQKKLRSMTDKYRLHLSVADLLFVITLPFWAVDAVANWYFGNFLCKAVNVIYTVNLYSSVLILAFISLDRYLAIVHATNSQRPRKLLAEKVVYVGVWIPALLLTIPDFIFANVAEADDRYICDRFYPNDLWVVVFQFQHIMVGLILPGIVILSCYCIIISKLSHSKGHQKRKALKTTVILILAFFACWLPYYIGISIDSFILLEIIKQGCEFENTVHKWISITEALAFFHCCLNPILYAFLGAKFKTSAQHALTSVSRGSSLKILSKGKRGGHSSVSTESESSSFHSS
WT CXCR4, sequence (P61073 whole entry): as the sequence (P61073 whole entry L41A/H113N/S178A) above, with A41L, N113H, A178S counted along it
Csedy, sequence (P61073 whole entry): as the sequence (P61073 whole entry L41A/H113N/S178A) above, with A41L, N113H, A178S counted along it

Efficacy, Gi ([1]; mean): 130.6 %WT-WT | Gi BRET (dEC50) ([1]; replicate 1): -1.8535 | Gi BRET (dEC50) ([1]; replicate 2): -2.0125 | Gi BRET (dEC50) ([1]; replicate 3): -2.163
Compound: V3W: CXCL12(1-17) peptide variant V3W (KPWSLSYRCPCRFFESH-NH2; cysteine pairing not given here; UniProt P48061 22-38, looked up, variant V3W)

Compound: full-length WT: full-length WT CXCL12 chemokine [reference compound]
Migration Index ([2]; donor/replicate 1): 4.556 | Migration Index ([2]; donor/replicate 2): 4.556 | Migration Index ([2]; donor/replicate 3): 4.738 | Migration Index ([2]; donor/replicate 4): 4.774 | enhanced migration ([3]; 100 nM WT CXCL12, vs no-attractant controls, WT CXCR4): around 1.5 -fold | Migration Index ([3]; donor/replicate 1): 1.882 | Migration Index ([3]; donor/replicate 2): 1.899 | Migration Index ([3]; donor/replicate 3): 1.407 | Migration Index ([3]; donor/replicate 4): 0.96 | Migration Index ([4]; donor/replicate 1): 3.5 | Migration Index ([4]; donor/replicate 2): 2.758 | Migration Index ([4]; donor/replicate 3): 2.302 | Migration Index ([5]; donor/replicate 1): 3.533 | Migration Index ([5]; donor/replicate 2): 2.962 | Migration Index ([5]; donor/replicate 3): 2.156 | Migration Index ([5]; donor/replicate 4): 3.087 | Migration Index ([5]; donor/replicate 5): 2.058

Compound: full-length V3Y: full-length chemokine incorporating the designed N-terminal tail V3Y
Migration Index ([3]; donor/replicate 1): 2.294 | Migration Index ([3]; donor/replicate 2): 2.226 | Migration Index ([3]; donor/replicate 3): 3.315 | Migration Index ([3]; donor/replicate 4): 2.878 | Migration Index ([3]; donor/replicate 5): 1.825 | Migration Index ([4]; donor/replicate 1): 4.176 | Migration Index ([4]; donor/replicate 2): 5.188 | Migration Index ([4]; donor/replicate 3): 4.028

decrease in overall Gαi response ([6]; WT receptor (Fig. 3a)): 18% | Gi BRET (dEC50) ([6]; replicate 1): 0.3425 | Gi BRET (dEC50) ([6]; replicate 2): 0.267 | Gi BRET (dEC50) ([6]; replicate 3): 0.275
Compound: Y7L: CXCL12(1-17) peptide variant, Leu at P7 (KPVSLSLRCPCRFFESH-NH2; cysteine pairing not given here)
Gαi efficacy increase ([7]; Csel2 receptor (Fig. 3a)): 30% | Gi BRET (dEC50) ([7]; replicate 1): -0.2255 | Gi BRET (dEC50) ([7]; replicate 2): -0.0185 | Gi BRET (dEC50) ([7]; replicate 3): -0.357

enhanced potency ([1]; vs WT receptor–peptide pair): more than 80 -fold | Gi BRET (dEC50) ([1]; replicate 1): -2.1375 | Gi BRET (dEC50) ([1]; replicate 2): -1.6575 | Gi BRET (dEC50) ([1]; replicate 3): -1.8525 | Gi BRET (dEC50) ([1]; replicate 4): -1.6695 | Gi BRET (dEC50) ([1]; replicate 5): -1.8605
Compound: CC(C)C[C@H](NC(=O)[C@H](CO)NC(=O)[C@H](Cc1ccc(O)cc1)NC(=O)[C@@H]1CCCN1C(=O)[C@@H](N)CCCCN)C(=O)N[C@@H](CO)C(=O)N[C@@H](Cc1ccc(O)cc1)C(=O)N[C@@H](CCCNC(=N)N)C(=O)N[C@@H](CS)C(=O)N1CCC[C@H]1C(=O)N[C@@H](CS)C(=O)N[C@@H](CCCNC(=N)N)C(=O)N[C@@H](Cc1ccccc1)C(=O)N[C@@H](Cc1ccccc1)C(=O)N[C@@H](CCC(=O)O)C(=O)N[C@@H](CO)C(=O)N[C@@H](Cc1c[nH]cn1)C(N)=O [V3Y] (H-KPYSLSYRCPCRFFESH-NH2; N-terminus assumed)

Efficacy, Gi ([8]; mean): 135.5 %WT-WT | Gi BRET (dEC50) ([8]; replicate 1): -1.6525 | Gi BRET (dEC50) ([8]; replicate 2): -2.5125 | Gi BRET (dEC50) ([8]; replicate 3): -1.456
Compound: V3W-Y7L: CXCL12(1-17) peptide variant V3W-Y7L (KPWSLSLRCPCRFFESH-NH2; cysteine pairing not given here; UniProt P48061 22-38, looked up, variant V3W Y7L)

Compound: full-length V3Y-Y7L: full-length chemokine incorporating the designed N-terminal tail V3Y-Y7L
Migration Index ([2]; donor/replicate 1): 4.478 | Migration Index ([2]; donor/replicate 2): 3.833 | Migration Index ([2]; donor/replicate 3): 3.752 | Migration Index ([2]; donor/replicate 4): 3.787 | Migration Index ([3]; donor/replicate 1): 2 | Migration Index ([3]; donor/replicate 2): 2.852 | Migration Index ([3]; donor/replicate 3): 2.992 | Migration Index ([5]; donor/replicate 1): 2.938 | Migration Index ([5]; donor/replicate 2): 2.133 | Migration Index ([5]; donor/replicate 3): 3.389 | Migration Index ([5]; donor/replicate 4): 4.146 | Migration Index ([5]; donor/replicate 5): 3.781 | Migration Index ([5]; donor/replicate 6): 2.587

Gαi BRET response ([9]; log[WT CXCL12(1-17)] -4.17653, replicate 1): 84.4534 | Gαi BRET response ([9]; log[WT CXCL12(1-17)] -4.17653, replicate 2): 83.4696 | Gαi BRET response ([9]; log[WT CXCL12(1-17)] -4.65365, replicate 1): 62.5022 | Gαi BRET response ([9]; log[WT CXCL12(1-17)] -4.65365, replicate 2): 62.6195 | Gαi BRET response ([9]; log[WT CXCL12(1-17)] -5.13077, replicate 1): 35.993 | Gαi BRET response ([9]; log[WT CXCL12(1-17)] -5.13077, replicate 2): 39.2443 | Gαi BRET response ([9]; log[WT CXCL12(1-17)] -5.60789, replicate 1): 12.5404 | Gαi BRET response ([9]; log[WT CXCL12(1-17)] -5.60789, replicate 2): 16.9401 | Gαi BRET response ([9]; log[WT CXCL12(1-17)] -6.08501, replicate 1): 10.2917 | Gαi BRET response ([9]; log[WT CXCL12(1-17)] -6.08501, replicate 2): 3.156 | Gαi BRET response ([9]; log[WT CXCL12(1-17)] -8, replicate 1): -1.029 | Gαi BRET response ([9]; log[WT CXCL12(1-17)] -8, replicate 2): 1.036
Compound: WT CXCR4: WT CXCR4 with an N-terminal 3xHA-tag
